In ChEMBL document CHEMBL1129820, “1,4-Bis-(2,3-epoxypropylamino)-9,10-anthracenedione and related compounds as potent antifungal and antimicrobial agents” (Bioorg Med Chem Lett, 1997):
Converted amounts (≈) assume the structure as drawn.

Key:
Pseudomonas fluorescens [1] = test: The compound was evaluated for antibacterial activity against Pseudomonas fluorescence at pH 9.0; assay type: functional
Pseudomonas fluorescens [2] = test: The compound was evaluated for antibacterial activity against Pseudomonas fluorescence at pH 4.0; assay type: functional
Aspergillus niger [3] = test: The compound was evaluated for antifungal activity against Aspergillus niger at pH 7.5 (end point 0.25 p.p.m. in separate test); assay type: functional
Pseudomonas fluorescens [4] = test: The compound was evaluated for antibacterial activity against Pseudomonas fluorescence at pH 7.0; assay type: functional
Chaetomium globosum [5] = test: The compound was evaluated for antifungal activity against Chaetomium globosum at pH 7.5 (end point 2.5 p.p.m. in separate test); assay type: functional
Amorphotheca resinae [6] = test: The compound was evaluated for antifungal activity against Cladosporium resinae at pH 7.5 (end point 2.5 p.p.m. in separate test); assay type: functional
Talaromyces funiculosus = test: The compound was evaluated for antifungal activity against Penicillium funiculosum at pH 7.5 (end point 2.5 p.p.m. in separate test); assay type: functional
Aureobasidium pullulans [7] = test: The compound was evaluated for antifungal activity against Aureobasidium pullulans at pH 7.5 (end point <0.25 p.p.m. in separate test); assay type: functional
Globisporangium ultimum = test: The compound was evaluated for antifungal activity against the fungi Pythium ultimum; assay type: functional, organism-based
Phytophthora capsici = test: The compound was evaluated for antifungal activity against the fungi Phytophthora capsici; assay type: functional
[8] = system: Dolichospermum flos-aquae; test: The compound was evaluated for antialgal activity against Anabaena flos-aquae; assay type: functional
[9] = system: Auxenochlorella pyrenoidosa; test: The compound was evaluated for antialgal activity against Chlorella pyrenoidosa; assay type: functional
Pseudomonas fluorescens [10] = test: The compound was evaluated for antibacterial activity against Pseudomonas fluorescence at pH 8.0; assay type: functional
Pseudomonas fluorescens [11] = test: The compound was evaluated for antibacterial activity against Pseudomonas fluorescence at pH 5.5; assay type: functional
Aureobasidium pullulans [12] = test: The compound was evaluated for antifungal activity against Aureobasidium pullulans at pH 7.5; assay type: functional
Aspergillus niger [13] = test: The compound was evaluated for antifungal activity against Aspergillus niger at pH 7.5; assay type: functional
Pseudomonas aeruginosa = test: The compound was evaluated for antibacterial activity against Pseudomonas aeruginosa at pH 7.0; assay type: functional
Pseudomonas fluorescens [14] = test: The compound was evaluated for antibacterial activity against the Pseudomonas fluorescence at pH 7.0; assay type: functional
Staphylococcus aureus [15] = test: The compound was evaluated for antibacterial activity against Staphylococcus aureus at pH 7.0; assay type: functional
Escherichia coli = test: The compound was evaluated for antibacterial activity against Escherichia coli at pH 7.0; assay type: functional
Aureobasidium pullulans [16] = test: The compound was evaluated for antifungal activity against Aureobasidium pullulans at pH 7.5 (end point 25 p.p.m. in separate test); assay type: functional
Staphylococcus aureus [17] = test: The compound was evaluated for antifungal activity against Staphylococcus aureus in separate test(endopoint 0.25 p.p.m.) at pH 7.0; assay type: functional
Pseudomonas fluorescens [18] = test: The compound was evaluated for antibacterial activity against Pseudomonas fluorescence at pH 4.0 in trypticase soy broth medium; assay type: functional
Amorphotheca resinae [19] = test: The compound was evaluated for antifungal activity against Cladosporium resinae at pH 7.5 (end point <0.25 p.p.m. in separate test); assay type: functional
Pseudomonas fluorescens [20] = test: The compound was evaluated for antibacterial activity against Pseudomonas fluorescence at pH 7.0 in trypticase soy broth medium; assay type: functional
Pseudomonas fluorescens [21] = test: The compound was evaluated for antifungal activity against Pseudomonas fluorescence in separate test(endopoint 0.25 p.p.m.) at pH 7.0; assay type: functional
Pseudomonas fluorescens [22] = test: The compound was evaluated for antibacterial activity against Pseudomonas fluorescence at pH 9.0 in trypticase soy broth medium; assay type: functional
Chaetomium globosum [23] = test: The compound was evaluated for antifungal activity against Chaetomium globosum at pH 7.5 (end point <0.25 p.p.m. in separate test); assay type: functional

Work on `CCCCNC(=O)OC#CCI` yielded an MIC (Pseudomonas fluorescens [1]) of 50 µg/mL (≈ 178 µM), an MIC (Pseudomonas fluorescens [2]) of 50 µg/mL (≈ 178 µM) and an MIC (Aspergillus niger [3]) of 1.6 µg/mL (≈ 5.69 µM). It also gave an MIC (Pseudomonas fluorescens [4]) of 0.2 µg/mL (≈ 0.712 µM), an MIC (Chaetomium globosum [5]) of 1.6 µg/mL (≈ 5.69 µM) and an MIC (Amorphotheca resinae [6]) of 25 µg/mL (≈ 88.9 µM). For the same compound, the MIC (Talaromyces funiculosus) was 0.8 µg/mL (≈ 2.85 µM) and the MIC (Aureobasidium pullulans [7]) was 0.1 µg/mL (≈ 0.356 µM).
With `COCC(=O)N(c1c(C)cccc1C)C(C)C(=O)OC` (stereo not given) [METALAXYL] the EC50 (Globisporangium ultimum) was 0.017 p.p.m and the MIC (Phytophthora capsici) was 0.4 µg/mL (≈ 1.43 µM).
In the case of `Cn1sc(Cl)cc1=O.Cn1sccc1=O`, the MIC [8] is reported as 0.1 µg/mL and the MIC [9] is reported as 0.3 µg/mL.
In the case of `O=C1c2ccccc2C(=O)c2c(NCC(Cl)CO)ccc(NCC(Cl)CO)c21` (stereo not given), the MIC (Pseudomonas fluorescens [1]) is reported as 50 µg/mL (≈ 118 µM), the MIC (Pseudomonas fluorescens [4]) is reported as 25 µg/mL (≈ 59.1 µM) and the MIC (Pseudomonas fluorescens [10]) is reported as 50 µg/mL (≈ 118 µM). For the same compound, the MIC (Pseudomonas fluorescens [11]) was over 100 µg/mL.
Compound `O=C1c2ccccc2C(=O)c2c(OCC3CO3)ccc(OCC3CO3)c21` (stereo not given) has an EC50 (Globisporangium ultimum) of 3.6 p.p.m, an MIC (Aureobasidium pullulans [12]) of over 250 µg/mL and an MIC (Aspergillus niger [13]) of over 250 µg/mL. For the same compound, the MIC (Pseudomonas aeruginosa) was over 250 µg/mL, the MIC (Pseudomonas fluorescens [14]) was 4 µg/mL (≈ 11.4 µM) and the MIC (Staphylococcus aureus [15]) was over 250 µg/mL. It also gave an MIC (Escherichia coli) of over 250 µg/mL.
`O=C1c2ccccc2C(=O)c2c(NCC3CO3)ccc(NCC3CO3)c21` (stereo not given) showed an MIC (Pseudomonas fluorescens [1]) of 0.05 µg/mL (≈ 0.143 µM), an MIC (Aureobasidium pullulans [16]) of 0.8 µg/mL (≈ 2.28 µM) and an MIC (Staphylococcus aureus [17]) of 0.2 µg/mL (≈ 0.571 µM). For the same compound, the EC50 (Globisporangium ultimum) was 0.03 p.p.m, the MIC [8] was under 2 µg/mL and the MIC (Aspergillus niger [3]) was 0.4 µg/mL (≈ 1.14 µM). For the same compound, the MIC (Pseudomonas fluorescens [18]) was 0.2 µg/mL (≈ 0.571 µM), the MIC (Pseudomonas fluorescens [4]) was 0.05 µg/mL (≈ 0.143 µM) and the MIC (Pseudomonas aeruginosa) was 63 µg/mL (≈ 180 µM). The MIC (Pseudomonas fluorescens [10]) was 0.05 µg/mL (≈ 0.143 µM), the MIC (Amorphotheca resinae [19]) was 0.4 µg/mL (≈ 1.14 µM) and the MIC (Pseudomonas fluorescens [14]) was under 0.13 µg/mL. The MIC (Pseudomonas fluorescens [20]) was 0.2 µg/mL (≈ 0.571 µM), the MIC (Pseudomonas fluorescens [11]) was 0.025 µg/mL (≈ 0.0714 µM) and the MIC (Talaromyces funiculosus) was 0.8 µg/mL (≈ 2.28 µM). It also gave an MIC (Pseudomonas fluorescens [21]) of 0.2 µg/mL (≈ 0.571 µM), an MIC (Staphylococcus aureus [15]) of under 0.13 µg/mL and an MIC [9] of under 2 µg/mL. For the same compound, the MIC (Pseudomonas fluorescens [22]) was 0.2 µg/mL (≈ 0.571 µM), the MIC (Chaetomium globosum [23]) was 0.4 µg/mL (≈ 1.14 µM) and the MIC (Phytophthora capsici) was 0.2 µg/mL (≈ 0.571 µM). The MIC (Escherichia coli) was 250 µg/mL (≈ 714 µM).
`O=C1c2ccccc2C(=O)c2c(NCC(Br)CO)ccc(NCC(Br)CO)c21` (stereo not given) gave an MIC (Pseudomonas fluorescens [1]) of 0.2 µg/mL (≈ 0.39 µM), an MIC (Pseudomonas fluorescens [4]) of 50 µg/mL (≈ 97.6 µM) and an MIC (Pseudomonas fluorescens [10]) of 0.4 µg/mL (≈ 0.781 µM). It also gave an MIC (Pseudomonas fluorescens [11]) of 100 µg/mL (≈ 195 µM).
Work on `CCCCCCCCn1sc(Cl)c(Cl)c1=O` yielded an MIC (Pseudomonas fluorescens [14]) of under 0.2 µg/mL.
